{"source": "paper PMC9133015", "about": "(Nature Communications, 2022)", "key": {"[1]": {"system": "DU145 cells", "assay": "Cell cycle assay (PI flow cytometry)", "assay_type": "cell-based, human"}, "[2]": {"system": "PC-3 cells", "assay": "Cell cycle assay (PI flow cytometry)", "assay_type": "cell-based, human", "conditions": "for Cell cycle percentages ( % ) G0/G1 / Cell cycle percentages ( % ) G2/M / Cell cycle percentages ( % ) S: PC-3, replicates"}, "[3]": {"system": "DU145 xenograft", "assay": "In vivo antitumor activity, DU145 xenograft mouse model", "set-up": "species or system BALB/c nude mice", "conditions": "for Tumor weight (Fig. 7c): individual mice; for Tumor volume (Fig. 7a): in cm³ (unit assumed)"}, "[4]": {"system": "DU145 xenograft", "assay": "H&E and Ki67 staining of xenograft tumor tissues", "assay_type": "in vivo, BALB/c nude mice", "conditions": "replicates"}, "[5]": {"conditions": "YK-2-69 (100 mg/kg), Day 37, individual mice, 100 mg/kg"}, "[6]": {"conditions": "YK-2-69 (100 mg/kg), Day 39, individual mice, 100 mg/kg"}, "[7]": {"conditions": "YK-2-69 (100 mg/kg), Day 41, individual mice, 100 mg/kg"}, "[8]": {"conditions": "YK-2-69 (100 mg/kg), Day 43, individual mice, 100 mg/kg"}, "[9]": {"conditions": "YK-2-69 (100 mg/kg), Day 45, individual mice, 100 mg/kg"}, "[10]": {"conditions": "YK-2-69 (100 mg/kg), Day 49, individual mice, 100 mg/kg"}, "[11]": {"conditions": "YK-2-69 (200 mg/kg), Day 1, individual mice, 200 mg/kg"}, "[12]": {"conditions": "YK-2-69 (200 mg/kg), Day 5, individual mice, 200 mg/kg"}}, "note": "Values joined by “and” are separate entries in the source; they are usually repeats but may differ in a detail not shown here. Equal values may be shown once. “Also recorded” adds a separate entry of the source.", "data": [{"smiles": "CCN1CCN(C(=O)c2ccc(Nc3ncc(F)c(-c4ccc5nc(N(C)C)sc5c4)n3)nc2)CC1", "note": "[YK-2-69]", "values": [{"measurement": "Cell cycle percentages ( % ) G0/G1", "setting": "[1]; DU145, 8 μM, replicates", "value": "61.67% and 60.91% and 63.23%"}, {"measurement": "Cell cycle percentages ( % ) G2/M", "setting": "[1]; DU145, 8 μM, replicates", "value": "18.53% and 21.24% and 18.93%"}, {"measurement": "Cell cycle percentages ( % ) S", "setting": "[1]; DU145, 8 μM, replicates", "value": "19.8% and 17.85% and 17.84%"}, {"measurement": "cell cycle (in words)", "setting": "[1]; DU145 cells, concentration-dependent", "value": "arrested cell cycle at the G0/G1 phase"}, {"measurement": "Cell cycle percentages ( % ) G0/G1", "setting": "[2]; 0.5 µM", "value": "55.96% and 58.42% and 57.82%"}, {"measurement": "Cell cycle percentages ( % ) G0/G1", "setting": "[2]; 1 µM", "value": "58.52% and 60.06% and 62.96%"}, {"measurement": "Cell cycle percentages ( % ) G0/G1", "setting": "[2]; 2 µM", "value": "64.67% and 62.48% and 65.02%"}, {"measurement": "Cell cycle percentages ( % ) G2/M", "setting": "[2]; 0.5 µM", "value": "27.56% and 26.05% and 24.61%"}, {"measurement": "Cell cycle percentages ( % ) G2/M", "setting": "[2]; 1 µM", "value": "26.02% and 25.73% and 24.02%"}, {"measurement": "Cell cycle percentages ( % ) G2/M", "setting": "[2]; 2 µM", "value": "24.12% and 24.24% and 22.16%"}, {"measurement": "Cell cycle percentages ( % ) S", "setting": "[2]; 0.5 µM", "value": "16.48% and 15.53% and 17.57%"}, {"measurement": "Cell cycle percentages ( % ) S", "setting": "[2]; 1 µM", "value": "15.46% and 14.21% and 13.02%"}, {"measurement": "Cell cycle percentages ( % ) S", "setting": "[2]; 2 µM", "value": "11.21% and 13.28% and 12.82%"}, {"measurement": "cell cycle (in words)", "setting": "[2]; PC-3 cells, concentration-dependent", "value": "arrested cell cycle at the G0/G1 phase"}, {"measurement": "body weight of mice (in words)", "setting": "[3]; DU145 xenograft, 200 mg/kg orally once a day", "value": "increased gradually"}, {"measurement": "antitumor activity (in words)", "setting": "[3]; DU145 xenograft, 200 mg/kg orally once a day, seven weeks, 200 mg/kg", "value": "much better antitumor activities than both enzalutamide and palbociclib; also recorded: decreased the volume of tumor since the 31st day"}, {"measurement": "Tumor weight (Fig. 7c)", "setting": "[3]; High dose, in g (unit assumed)", "value": "0.51 and 0.47 and 0.43 and 0.45 and 0.62 and 0.73 and 0.69 and 0.41"}, {"measurement": "Tumor weight (Fig. 7c)", "setting": "[3]; Low dose, in g (unit assumed)", "value": "1.34 and 1.32 and 1.29 and 1.36 and 1.47 and 1.24 and 1.68 and 1.73 and 1.54 and 1.49"}, {"measurement": "Body weight (Fig. 7b)", "setting": "[3]; [5]", "value": "26.5 and 24.2 and 25.7 and 25.5 (2×) and 24.9 and 24.6 and 25.2 and 25.6 and 26.6"}, {"measurement": "Tumor volume (Fig. 7a)", "setting": "[3]; [5]", "value": "0.9849 and 0.8117 and 1.322 and 0.8631 and 0.9203 and 0.6445 and 0.8644 and 1.073 and 1.152 and 1.1772"}, {"measurement": "Body weight (Fig. 7b)", "setting": "[3]; [6]", "value": "26.2 and 24.5 and 25.9 and 25.8 (2×) and 25.3 and 24.9 and 25.4 and 26 and 26.8"}, {"measurement": "Tumor volume (Fig. 7a)", "setting": "[3]; [6]", "value": "0.957 and 0.8113 and 1.305 and 0.8461 and 0.9452 and 0.6025 and 0.7668 and 1.032 and 1.21 and 1.322"}, {"measurement": "Body weight (Fig. 7b)", "setting": "[3]; [7]", "value": "26.4 and 24.6 and 26.1 and 25.8 and 25.6 (2×) and 25.2 and 26.3 and 26 and 26.5"}, {"measurement": "Tumor volume (Fig. 7a)", "setting": "[3]; [7]", "value": "1.01 and 0.8586 and 1.367 and 0.9073 and 0.9955 and 0.6291 and 0.7765 and 1.063 and 1.256 and 1.304"}, {"measurement": "Body weight (Fig. 7b)", "setting": "[3]; [8]", "value": "26.7 and 25 and 26.3 (2×) and 25.9 (2×) and 25.4 and 26.5 and 25.7 and 26.6"}, {"measurement": "Tumor volume (Fig. 7a)", "setting": "[3]; [8]", "value": "1.081 and 0.9018 and 1.428 and 0.9736 and 1.066 and 0.6924 and 0.8141 and 1.105 and 1.304 and 1.393"}, {"measurement": "Body weight (Fig. 7b)", "setting": "[3]; [9]", "value": "26.9 (2×) and 25.2 and 26.7 and 26.2 and 26.3 and 25.7 and 26.8 and 25.9 and 26.5"}, {"measurement": "Tumor volume (Fig. 7a)", "setting": "[3]; [9]", "value": "1.137 and 0.9183 and 1.533 and 1.03 and 1.104 and 0.7734 and 0.8511 and 1.184 and 1.29 and 1.475"}, {"measurement": "Tumor volume (Fig. 7a)", "setting": "[3]; YK-2-69 (100 mg/kg), Day 47, individual mice, 100 mg/kg", "value": "1.209 and 0.991 and 1.624 and 1.045 and 1.005 and 0.829 and 0.881 and 1.225 and 1.336 and 1.553"}, {"measurement": "Body weight (Fig. 7b)", "setting": "[3]; YK-2-69 (100 mg/kg), Day 47, individual mice, 100 mg/kg, in g (unit assumed)", "value": "27.2 and 25.5 and 26.9 and 26.3 and 26.6 and 25.8 and 27.1 and 26 and 26.8 and 27.4"}, {"measurement": "Body weight (Fig. 7b)", "setting": "[3]; [10]", "value": "27.5 and 25.8 and 27.1 (3×) and 26.6 and 26.9 and 26.1 and 27.3 and 26.2"}, {"measurement": "Tumor volume (Fig. 7a)", "setting": "[3]; [10]", "value": "1.289 and 1.004 and 1.711 and 1.157 and 1.055 and 0.8821 and 0.8937 and 1.296 and 1.303 and 1.663"}, {"measurement": "Body weight (Fig. 7b)", "setting": "[3]; [11]", "value": "19.6 and 20.5 and 20.2 (2×) and 19.9 and 20.3 and 20.7 and 21.4 and 21 and 20"}, {"measurement": "Tumor volume (Fig. 7a)", "setting": "[3]; [11]", "value": "0.07862 and 0.07877 and 0.07202 and 0.06915 and 0.0797 and 0.06867 and 0.07232 and 0.09045 and 0.0645 and 0.09096"}, {"measurement": "Tumor volume (Fig. 7a)", "setting": "[3]; YK-2-69 (200 mg/kg), Day 3, individual mice, 200 mg/kg", "value": "0.1045 and 0.1116 and 0.1049 and 0.08973 and 0.1165 and 0.1011 and 0.1007 and 0.1453 and 0.08834 and 0.1272"}, {"measurement": "Body weight (Fig. 7b)", "setting": "[3]; YK-2-69 (200 mg/kg), Day 3, individual mice, 200 mg/kg, in g (unit assumed)", "value": "19.9 and 20.6 and 20.5 and 20.2 and 20.7 and 21.5 and 21.3 and 20.3 and 20.1"}, {"measurement": "Body weight (Fig. 7b)", "setting": "[3]; YK-2-69 (200 mg/kg), Day 3, individual mice, in g (unit assumed)", "value": 21}, {"measurement": "Body weight (Fig. 7b)", "setting": "[3]; [12]", "value": "20.2 and 20.9 and 20.8 and 20.4 and 21.1 (2×) and 21.8 and 21.6 and 20.3 and 20.5"}, {"measurement": "Tumor volume (Fig. 7a)", "setting": "[3]; [12]", "value": "0.1323 and 0.1488 and 0.1486 and 0.1179 and 0.1568 and 0.1343 and 0.1497 and 0.2074 and 0.1183 and 0.1702"}, {"measurement": "Positive rate ( % ) (Fig. 7f)", "setting": "[4]; DU145, High dose", "value": "15.32% and 14.77% and 16.1%"}, {"measurement": "Positive rate ( % ) (Fig. 7f)", "setting": "[4]; DU145, Low dose", "value": "20.24% and 19.5% and 21.1%"}]}]}
